Test results as given in patent US6274636A (priority 1999, dated 2001).

Legend:
[1] = known; cited from earlier work
[2] = tested on: clinical subjects; assay: clinical observation, pupil response; type: in vivo, human
[3] = tested on: rats; assay: in vivo animal observation, overdose in rats; settings: rats exposed to an overdose
[4] = human clinical trials, safety profile; type: in vivo
[5] = tested on: muscarinic receptor subtype; assay: in vivo animal and clinical observations, muscarinic receptor subtype profile
[6] = tested on: muscarinic cholinergic receptor; assay: pharmacological studies, muscarinic cholinergic receptor activity
[7] = detection of radiolabelled compound in saliva; type: in vivo
[8] = tested on: 5-HT1C receptor; assay: activity at the 5-HT1C receptor; settings: anhydrous Form II

Row | Compound | induction of extrapyramidal symptoms [1] | pupilary response [2] | salivation [3] | safety profile [4] | muscarinic receptor subtype profile [5] | muscarinic cholinergic receptor activity [6] | detection in the saliva [7] | activity at the 5-HT1C receptor [8]
1 | Cc1cc2c(s1)Nc1ccccc1N=C2N1CCN(C)CC1 [2-methyl-4-(4-methyl-1-piperazinyl)-10H-thieno[2,3-b][1,5]benzodiazepine] | less likely to induce extrapyramidal symptoms | pupilary constriction rather than the expected pupilary dilation | significant salivation | favorable safety profile | complex muscarinic receptor subtype profile | has muscarinic cholinergic receptor activity | can be detected in the saliva | 
2 | Cc1cc2c(s1)Nc1ccccc1N=C2N1CCN(C)CC1 [anhydrous Form II, 2-methyl-4-(4-methyl-1-piperazinyl)-10H-thieno[2,3-b][1,5]benzodiazepine] |  |  |  |  |  |  |  | active
